The target in experiment [1] is T1, Orexin/Hypocretin receptor type 1 (Homo sapiens) (UniProt O43613).
T1 sequence (whole entry): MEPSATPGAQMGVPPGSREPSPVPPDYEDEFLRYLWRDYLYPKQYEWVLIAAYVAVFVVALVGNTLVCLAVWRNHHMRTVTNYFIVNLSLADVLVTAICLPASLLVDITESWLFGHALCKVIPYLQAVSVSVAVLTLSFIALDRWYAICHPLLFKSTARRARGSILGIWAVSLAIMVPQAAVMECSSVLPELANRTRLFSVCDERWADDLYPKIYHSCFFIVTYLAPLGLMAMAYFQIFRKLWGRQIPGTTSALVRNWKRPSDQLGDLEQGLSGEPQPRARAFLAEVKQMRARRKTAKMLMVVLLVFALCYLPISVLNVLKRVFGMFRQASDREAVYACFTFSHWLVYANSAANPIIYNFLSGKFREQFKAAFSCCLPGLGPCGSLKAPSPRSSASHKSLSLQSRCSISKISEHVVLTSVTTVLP
In words: Agonist activity against human orexin 1 receptor; EC50; nM. The experiment is classed as functional.

Experiment [2] deals with T2, Orexin receptor type 2 (Homo sapiens) (UniProt O43614).
T2 sequence (whole entry): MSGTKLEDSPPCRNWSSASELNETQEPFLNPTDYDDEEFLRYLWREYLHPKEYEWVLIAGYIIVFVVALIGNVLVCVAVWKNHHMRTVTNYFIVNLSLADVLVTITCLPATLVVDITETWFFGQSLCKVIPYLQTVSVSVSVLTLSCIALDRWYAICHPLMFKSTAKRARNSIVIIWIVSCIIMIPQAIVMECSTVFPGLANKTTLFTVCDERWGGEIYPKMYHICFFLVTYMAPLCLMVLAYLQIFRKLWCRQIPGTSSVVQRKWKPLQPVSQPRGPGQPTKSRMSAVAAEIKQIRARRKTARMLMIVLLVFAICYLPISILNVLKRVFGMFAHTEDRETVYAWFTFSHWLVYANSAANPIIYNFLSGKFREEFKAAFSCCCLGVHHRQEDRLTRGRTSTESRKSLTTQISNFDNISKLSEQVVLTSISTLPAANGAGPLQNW
Briefly: (§1) Agonist activity against human orexin 2 receptor; EC50; nM. It counts as functional.

The species named for another experiment is Homo sapiens. Briefly: (§2) Agonist selectivity for orexin receptor 1 versus orexin receptor 2. It counts as functional.
The target of another experiment is T3, Orexin receptor type 2 (Homo sapiens, UniProt O43614).
T3 sequence (O43614 whole entry): T2 sequence (whole entry)
The experiment is described as §1. It counts as functional.

A short description of experiment [3]: as §2. It counts as functional, Homo sapiens.

One may read the EC50 as the concentration giving half of the maximal effect.

For the compound `CC[C@H](C)[C@H](NC(=O)[C@H](CC(C)C)NC(=O)[C@@H](NC(=O)[C@@H](N)CCSC)[C@@H](C)O)C(=O)NCC(=O)N[C@@H](C)C(=O)N[C@@H](C)C(=O)N[C@@H](Cc1c[nH]cn1)C(=O)N[C@@H](CC(N)=O)C(=O)NCC(=O)N[C@@H](CO)C(=O)N[C@@H](C)C(=O)N[C@@H](CCC(N)=O)C(=O)N[C@H](CC(C)C)C(=O)N[C@@H](CC(C)C)C(=O)N[C@@H](CCCN=C(N)N)C(=O)N[C@@H](CCC(N)=O)C(=O)N[C@@H](C)C(=O)N[C@@H](CCCN=C(N)N)C(=O)NCC(=O)N[C@@H](CCC(N)=O)C(=O)N[C@@H](CC(C)C)C(=O)NCC(=O)N1CCC[C@H]1C(=O)N1CCC[C@H]1C(=O)NCC(=O)N[C@@H](CO)C(=O)N[C@@H](CCCN=C(N)N)C(N)=O`, the EC50 in experiment [1] amounted to 52 nM; in experiment [2], 0.13 nM. The same compound yielded a selectivity in the experiment listed under Homo sapiens of 400.

Take `CC[C@H](C)[C@H](NC(=O)[C@H](CC(C)C)NC(=O)[C@@H](NC(=O)[C@@H](N)CCSC)[C@@H](C)O)C(=O)NCC(=O)N[C@@H](C)C(=O)N[C@@H](C)C(=O)N[C@@H](Cc1c[nH]cn1)C(=O)N[C@@H](CC(N)=O)C(=O)NCC(=O)N[C@@H](CO)C(=O)N[C@@H](C)C(=O)N[C@@H](CCC(N)=O)C(=O)N[C@@H](CC(C)C)C(=O)N[C@H](CC(C)C)C(=O)N[C@@H](CCCN=C(N)N)C(=O)N[C@@H](CCC(N)=O)C(=O)N[C@@H](C)C(=O)N[C@@H](CCCN=C(N)N)C(=O)NCC(=O)N[C@@H](CCC(N)=O)C(=O)N[C@@H](CC(C)C)C(=O)NCC(=O)N1CCC[C@H]1C(=O)N1CCC[C@H]1C(=O)NCC(=O)N[C@@H](CO)C(=O)N[C@@H](CCCN=C(N)N)C(N)=O`: the EC50 in experiment [1] was 270 nM; in experiment [2] it was 1.9 nM. Further, the selectivity in the experiment listed under Homo sapiens stood at 140.

Regarding `CC[C@H](C)[C@H](NC(=O)[C@H](CC(C)C)NC(=O)[C@@H](NC(=O)[C@@H](N)CCSC)[C@@H](C)O)C(=O)NCC(=O)N[C@@H](C)C(=O)N[C@@H](C)C(=O)N[C@@H](Cc1cnc[nH]1)C(=O)N[C@@H](CC(N)=O)C(=O)NCC(=O)N[C@@H](CO)C(=O)N[C@@H](C)C(=O)N[C@@H](CCC(N)=O)C(=O)N[C@@H](CC(C)C)C(=O)N[C@@H](CC(C)C)C(=O)N[C@@H](CCCN=C(N)N)C(=O)N[C@@H](CCC(N)=O)C(=O)N[C@@H](CC(C)C)C(=O)N[C@@H](CCCN=C(N)N)C(=O)NCC(=O)N[C@@H](CCC(N)=O)C(=O)N[C@@H](CC(C)C)C(=O)NCC(=O)N1CCC[C@H]1C(=O)N1CCC[C@H]1C(=O)N[C@H](C)C(=O)N[C@@H](CO)C(=O)N[C@@H](CCCN=C(N)N)C(N)=O`, the EC50 at Orexin receptor type 2 came out at 0.16 nM.

`CC[C@H](C)[C@H](NC(=O)[C@H](CC(C)C)NC(=O)[C@@H](NC(=O)[C@@H](N)CCSC)[C@@H](C)O)C(=O)NCC(=O)N[C@@H](C)C(=O)N[C@@H](C)C(=O)N[C@@H](Cc1cnc[nH]1)C(=O)N[C@@H](CC(N)=O)C(=O)NCC(=O)N[C@@H](CO)C(=O)N[C@@H](C)C(=O)N[C@@H](CCC(N)=O)C(=O)N[C@@H](CC(C)C)C(=O)N[C@@H](CC(C)C)C(=O)N[C@@H](CCCN=C(N)N)C(=O)N[C@@H](CCC(N)=O)C(=O)N[C@@H](C)C(=O)N[C@@H](CCCN=C(N)N)C(=O)NCC(=O)N[C@@H](CCC(N)=O)C(=O)N[C@@H](CC(C)C)C(=O)NCC(=O)N1CCC[C@H]1C(=O)N1CCC[C@H]1C(=O)NCC(=O)N[C@@H](CO)C(=O)N[C@@H](CCCN=C(N)N)C(N)=O` returned an EC50 at Orexin receptor type 2 of 0.066 nM.

On Orexin receptor type 2, H-MTLIGAAHNGSAQLLRQWRGQLGPPGSR-NH2 yielded an EC50 of 0.15 nM.

On to `CC[C@H](C)[C@H](NC(=O)[C@H](CC(C)C)NC(=O)[C@@H](NC(=O)[C@@H](N)CCSC)[C@@H](C)O)C(=O)NCC(=O)N[C@@H](C)C(=O)N[C@@H](C)C(=O)N[C@@H](Cc1c[nH]cn1)C(=O)N[C@@H](CC(N)=O)C(=O)NCC(=O)N[C@@H](CO)C(=O)N[C@@H](C)C(=O)N[C@@H](CCC(N)=O)C(=O)N[C@@H](CC(C)C)C(=O)N[C@@H](CC(C)C)C(=O)N[C@@H](CCCN=C(N)N)C(=O)N[C@@H](CCC(N)=O)C(=O)N[C@@H](CC(C)C)C(=O)N[C@@H](CCCN=C(N)N)C(=O)NCC(=O)N[C@@H](CCC(N)=O)C(=O)N[C@@H](CC(C)C)C(=O)NCC(=O)N1CCC[C@H]1C(=O)N1CCC[C@H]1C(=O)NCC(=O)N[C@@H](CO)C(=O)N[C@@H](CCCN=C(N)N)C(N)=O` [OREXIN B], for which the EC50 was 0.83 nM in experiment [1] and 0.081 nM in experiment [2]. Moreover, the selectivity (in experiment [3]; in the experiment listed under Homo sapiens) was 10 throughout.

Take `CC[C@H](C)[C@H](NC(=O)[C@H](CC(C)C)NC(=O)[C@@H](NC(=O)[C@@H](N)CCSC)[C@@H](C)O)C(=O)N[C@H](C)C(=O)N[C@@H](C)C(=O)N[C@@H](C)C(=O)N[C@@H](Cc1cnc[nH]1)C(=O)N[C@@H](CC(N)=O)C(=O)NCC(=O)N[C@@H](CO)C(=O)N[C@@H](C)C(=O)N[C@@H](CCC(N)=O)C(=O)N[C@@H](CC(C)C)C(=O)N[C@@H](CC(C)C)C(=O)N[C@@H](CCCN=C(N)N)C(=O)N[C@@H](CCC(N)=O)C(=O)N[C@@H](CC(C)C)C(=O)N[C@@H](CCCN=C(N)N)C(=O)NCC(=O)N[C@@H](CCC(N)=O)C(=O)N[C@@H](CC(C)C)C(=O)NCC(=O)N1CCC[C@H]1C(=O)N1CCC[C@H]1C(=O)NCC(=O)N[C@@H](CO)C(=O)N[C@@H](CCCN=C(N)N)C(N)=O`: the EC50 on Orexin receptor type 2 is 67 nM.

These data come from ChEMBL document CHEMBL1145783, “Development of an orexin-2 receptor selective agonist, [Ala(11), D-Leu(15)]orexin-B” (Bioorg Med Chem Lett, 2003).
